# Experimental data taken from patent US20080181875A1, “USE OF CYCLOPHILIN AS ANTIOXIDANT AND PREVENTION OF CYCLOSPORIN A-INDUCED TOXICITY IN CELL TRANSPLANTATION BY OVEREXPRESSION OF CYCLOPHILIN” (priority 2002, published 2008).
# Where a name gives a salt, the structure may show the parent alone.
# B1: catalase: antioxidant enzyme purchased from Sigma (protein, UniProt P00432 2-527, looked up)
# Catalase: ADNRDPASDQMKHWKEQRAAQKPDVLTTGGGNPVGDKLNSLTVGPRGPLLVQDVVFTDEMAHFDRERIPERVVHAKGAGAFGYFEVTHDITRYSKAKVFEHIGKRTPIAVRFSTVAGESGSADTVRDPRGFAVKFYTEDGNWDLVGNNTPIFFIRDALLFPSFIHSQKRNPQTHLKDPDMVWDFWSLRPESLHQVSFLFSDRGIPDGHRHMNGYGSHTFKLVNANGEAVYCKFHYKTDQGIKNLSVEDAARLAHEDPDYGLRDLFNAIATGNYPSWTLYIQVMTFSEAEIFPFNPFDLTKVWPHGDYPLIPVGKLVLNRNPVNYFAEVEQLAFDPSNMPPGIEPSPDKMLQGRLFAYPDTHRHRLGPNYLQIPVNCPYRARVANYQRDGPMCMMDNQGGAPNYYPNSFSAPEHQPSALEHRTHFSGDVQRFNSANDDNVTQVRTFYLKVLNEEQRKRLCENIAGHLKDAQLFIQKKAVKNFSDVHPEYGSRIQALLDKYNEEKPKNAVHTYVQHGSHLSAREKANL
# Assays:
# H9c2 myoblasts [1] = assay: Effect of antioxidants on muscle differentiation (morphology); type: cell-based, rat; conditions: 5 days in DM; 0.4 mM DFOM, 2000 units/ml catalase, 10 mM Tiron
# Description: H9c2 myoblasts were cultured for 5 days in DM containing 0.4 mM of DFOM, 2000 units/ml of catalase, 10 mM of Tiron (4,5-dihydroxy-1,3-benzene-disulfonic acid) to induce differentiation, during which morphological changes were observed. The control is the myoblasts which were induced to differentiate in the absence of […].
# H9c2 myoblasts [2] = assay: Survival and morphology of CypA-transfected cells exposed to CsA or H2O2; type: cell-based, rat; conditions: 10 μM CsA 72 h in DM; for protection from CsA- or H2O2-induced apoptotic cell death: 300 μM H2O2 12 h in DMEM/F-12
# Description: Separately, the cells were exposed to 300 μM H2O2 for 12 hours in DMEM/F-12. […] Here, % cell survival is obtained by dividing […].
# ROS [3] = assay: ROS content of CypA-transfected cells in DM with or without CsA (DCF FACS); type: cell-based, rat; conditions: DM containing no CsA or 10 μM CsA
# Description: These transfected cells were grown at 37° C. in the presence of 10 μM DCF, washed with PBS, resuspended in […] of PBS, and measured for ROS content by FACS analysis.
# H9c2 myoblasts [4] = assay: Muscle differentiation of CypA-transfected cells in DM (morphology, time required); type: cell-based, rat; conditions: for time required for muscle differentiation: transfected H9c2 cells in DM, mock control 4-5 days; for muscle differentiation in DM: transfected H9c2 cells, no CsA
# Description: To determine the role of CypA, that is, PPIase, in muscle differentiation, time periods required for the complete differentiation of the three CypA gene-transfected cells, CypA/wt, CypA/W121F and CypA/R55A were measured while they were cultured in DM. In addition, their morphological changes were observed when they were completely differentiated.
# Bax [5] = assay: Bax expression in CypA-transfected cells exposed to CsA or H2O2 (Western blot); type: cell-based, rat; conditions: exposed to CsA; similar results with H2O2
# Text: In the histograms of FIG. 7f, bars express the Bax levels in the samples as percentages compared to the mock-transfected cells.
# PPIase activity = conditions: cited from earlier work
# [6] = system: mitochondria membrane potential; assay: Mitochondria membrane potential by DiOC6[3] flow cytometry; type: cell-based; conditions: 48 hours in DM; 1-10 μM CsA, 9 μM FK506, 200 nM ascomycin
# Description: H9c2 myoblasts cultured in PM and in DM in the absence of the drugs were measured for Δψm (control). In the FACS plots of FIG. 6b, the second peaks and the first peaks represent viable cells with high DiOC6[3] contents and dead cells with DiOC6[3]. Numerals mean percentages of the myoblasts with decreased Δψm.
# H9c2 cardiac myoblasts = assay: Cell cycle and apoptosis (sub-G0/G1) by propidium iodide FACS; type: cell-based, rat; conditions: DM 72 h
# Description: Using 20,000 cells obtained from each of the cultures, measurements were made of percentages of cells in each phase of the cell cycle (G0/G1, S and G2/M) and percentages of cells in sub-G0/G1 aliquots (that is, apoptotic cells).
# transplanted myoblasts = conditions: cited from earlier work
# H9c2 myoblasts [7] = assay: Apoptosis by in-situ TUNEL assay and DNA fragmentation analysis; type: cell-based, rat; conditions: 72 hours in DM
# Description: TUNEL analysis was performed using ApopTag Flurescein In situ Apoptosis Detection kit (Intergen, Purchase, N.Y.). The results are given in FIG. 2c where arrows indicate TUNEL positive cells.
# Once cells undergo apoptosis, the DNA is digested into fragments diferring by 180-200 bp by endonuclease. […] DNA fragmentation aiming to identify the DNA laddering pattern was performed as follows. […] The cell lysates thus obtained were treated with 50 μg/ml RNase A at 37° C. for 2 hours and then with 500 μg/ml proteinase K at 55° C. for 2 hours. DNA was extracted by a phenol/chloroform method and precipitated in 70% (v/v) isopropanol. After being centrifuged at 15,000 rpm for 15 min, the precipitates were dissolved in a TE buffer (10 mM Tris-HCl (pH 8.0), 1 mM EDTA).
# calcineurin = assay: Calcineurin phosphatase activity in H9c2 myoblasts (BioMol Quantizyme assay); conditions: for influence on basal calcineurin phosphatase activity / concentration at which maximal inhibitory effect on the increased calcineurin phosphatase activity was observed: H9c2 myoblasts; for inhibition of calcineurin phosphatase activity induced during muscle differentiation: H9c2 myoblasts in DM; for concentration at which maximal inhibitory effect on the increased calcineurin phosphatase activity was observed: activity induced by DM (2 days) and PE (12 h)
# [8] = system: H9c2 rat cardiac myoblasts; assay: Morphological observation of muscle differentiation of myoblasts in DM; type: cell-based; conditions: 72 hours in DM
# Description: As a control, myoblasts were cultured in the absence of the drugs. Before use, the myoblasts were cultured to a cell confluency of about 70%.
# myogenin and MRF4 = assay: Western blot of myogenic markers myogenin and MRF4; type: cell-based, rat
# Description: In addition, the protein expression levels of the myogenin and MRF4, early and late myogenic markers, were determined by Western blot analysis. To this end, myoblast extracts treated with the drugs were separated on SDS-PAGE and transferred onto a nitrocellulose membrane which was then blocked and reacted with predetermined primary antibodies (polyclonal myogenic antibody and polyclonal MRF4 antibody (Santa Cruz, Calif., USA) and then with a secondary antibody (anti-rabbit IgG-HRP conjugate with a chemiluminescent reactive enzyme able to detect the primary antibodies) (Santa Cruz, Calif., USA). Finally, the specimens were detected by enhanced ECL-plus chemiluminescence (Amersham Pharmacia Biotech, Piscataway, N.J., USA). Non-myogenic β-actin protein was used as a loading control.
# Bax [9] = assay: Western blot of apoptosis-accelerating protein Bax; type: cell-based, rat; conditions: DM; 1-10 μM CsA, 9 μM FK506, 200 nM ascomycin
# Text: The results are shown in the upper part of FIG. 6a. β-actin is used as a loading control.
# After being scanned, the Western blot analysis bands were quantified by Bio-Rad imaging densitometer. The results are shown in the lower part of FIG. 6a. In the histograms, the bars express the Bax levels of the samples as mean±standard deviation values of the fold numbers compared to those of the control.
# ROS [10] = assay: Cellular ROS level by DCF flow cytometry (FACS); type: cell-based, rat; conditions: 10 μM, 24 hours in DM
# Description: H9c2 myoblasts were cultured for 24 hours in PM and in DM, and then in the presence of 10 μM DCF (2′,7′-dichlorofluorescein). After being harvested, the cells were washed once with PBS and resuspended in […] of PBS. The cellular levels of ROS generated were measured by flow cytometry (FACS), there values were regarded as controls. […] ROS levels were analyzed by FACS. […] ROS levels were measure as the above. The results are given in FIG. 5a where numerals indicate mean±standard deviation values of the ROS levels in the cells.
molecule,measurement,setting,value
"CC(=O)N(O)CCCCCNC(=O)CCC(=O)N(O)CCCCCNC(=O)CCC(=O)N(O)CCCCCN [DFOM, deferoxamine mesylate]",effect on muscle differentiation,H9c2 myoblasts [1],blocking activity
CypA/wt: wild type rat brain CypA gene transfected into and overexpressed in H9c2 rat cardiac myoblasts,protection from differentiation blockage,H9c2 myoblasts [2],not from differentiation blockage
same,protection from CsA- or H2O2-induced apoptotic cell death,H9c2 myoblasts [2],protect cells
same,ROS level,ROS [3],reduced the ROS level
same,time required for muscle differentiation,H9c2 myoblasts [4],8 to 9 days
same,muscle differentiation in DM,H9c2 myoblasts [4],undergo muscle differentiation
same,Bax expression,Bax [5],inhibited Bax expression
"CypA/R55A: mutated rat CypA with alanine instead of arginine at position 55, transfected into H9c2 myoblasts",protection from CsA- or H2O2-induced apoptotic cell death,H9c2 myoblasts [2],increases ROS-induced apoptosis
same,ROS level,ROS [3],significantly increased ROS generation
same,PPIase activity compared to the wild type protein,PPIase activity,one thousandth
same,muscle differentiation in DM,H9c2 myoblasts [4],no traces of differentiation
same,Bax expression,Bax [5],increased Bax expression
"C=CC[C@@H]1/C=C(\C)C[C@H](C)C[C@H](OC)[C@H]2O[C@@](O)(C(=O)C(=O)N3CCCC[C@H]3C(=O)O[C@H](/C(C)=C/[C@@H]3CC[C@@H](O)[C@H](OC)C3)[C@H](C)[C@@H](O)CC1=O)[C@H](C)C[C@@H]2OC [FK506, tacrolimus]",mitochondria membrane potential (Δψm),[6],not observed
same,% Apoptosis (sub-G0/G1 fraction),H9c2 cardiac myoblasts; FK506 9 μM,11 ± 3%
same,% G0/G1,H9c2 cardiac myoblasts; FK506 9 μM,83 ± 5%
same,% G2/M,H9c2 cardiac myoblasts; FK506 9 μM,4 ± 1%
same,% S,H9c2 cardiac myoblasts; FK506 9 μM,4 ± 1%
same,success rate of myoblast transplantation,transplanted myoblasts; clinical trials and animal model studies,≥ 95%
same,"apoptosis (TUNEL, DNA laddering)",H9c2 myoblasts [7],not related to apoptosis
same,influence on basal calcineurin phosphatase activity,calcineurin,no influence
same,inhibition of calcineurin phosphatase activity induced during muscle differentiation,calcineurin,completely inhibit
same,concentration at which maximal inhibitory effect on the increased calcineurin phosphatase activity was observed,calcineurin,1 µM
same,morphological changes during muscle differentiation,[8],no morphological differences
same,myogenin and MRF4 protein expression,"myogenin and MRF4; FK506, ascomycin in DM",no influence
same,Bax expression,Bax [9],do not affect
"O=S(=O)(O)c1cc(O)c(O)c(S(=O)(=O)O)c1 [Tiron, 4,5-dihydroxy-1,3-benzene-disulfonic acid]",effect on muscle differentiation,H9c2 myoblasts [1],blocking activity
"CypA/W121F: mutated rat CypA with phenylalanine instead of tryptophan at position 121, transfected into H9c2 myoblasts",protection from differentiation blockage,H9c2 myoblasts [2],not from differentiation blockage
same,protection from CsA- or H2O2-induced apoptotic cell death,H9c2 myoblasts [2],protect cells
same,ROS level,ROS [3],removed a greater amount of ROS than did CypA/wt
same,PPIase activity compared to the wild type protein,PPIase activity,half
same,time required for muscle differentiation,H9c2 myoblasts [4],14 to 15 days
same,muscle differentiation in DM,H9c2 myoblasts [4],undergo muscle differentiation
same,Bax expression,Bax [5],inhibited Bax expression
CC[C@@H]1/C=C(\C)C[C@H](C)C[C@H](OC)[C@H]2O[C@@](O)(C(=O)C(=O)N3CCCC[C@H]3C(=O)O[C@H](/C(C)=C/[C@@H]3CC[C@@H](O)[C@H](OC)C3)[C@H](C)[C@@H](O)CC1=O)[C@H](C)C[C@@H]2OC [ascomycin],mitochondria membrane potential (Δψm),[6],not observed
same,% Apoptosis (sub-G0/G1 fraction),H9c2 cardiac myoblasts; Ascomycin 200 nM,10 ± 3%
same,% G0/G1,H9c2 cardiac myoblasts; Ascomycin 200 nM,85 ± 3%
same,% G2/M,H9c2 cardiac myoblasts; Ascomycin 200 nM,4 ± 1%
same,% S,H9c2 cardiac myoblasts; Ascomycin 200 nM,2 ± 1%
same,"apoptosis (TUNEL, DNA laddering)",H9c2 myoblasts [7],not related to apoptosis
same,influence on basal calcineurin phosphatase activity,calcineurin,no influence
same,inhibition of calcineurin phosphatase activity induced during muscle differentiation,calcineurin,completely inhibit
same,concentration at which maximal inhibitory effect on the increased calcineurin phosphatase activity was observed,calcineurin,0.02 µM
same,morphological changes during muscle differentiation,[8],no morphological differences
same,myogenin and MRF4 protein expression,"myogenin and MRF4; FK506, ascomycin in DM",no influence
same,Bax expression,Bax [9],do not affect
O=P1(N(CCCl)CCCl)NCCCO1 (stereo not shown) [cyclophosphamide],success of allogenic myoblast transplantation,transplanted myoblasts; in vivo,did not increase the survival
C/C=C/C[C@@H](C)[C@@H](O)[C@H]1C(=O)N[C@@H](CC)C(=O)N(C)CC(=O)N(C)[C@@H]([C@@H](C)CC)C(=O)N[C@@H](C(C)C)C(=O)N(C)[C@@H](CC(C)C)C(=O)N[C@@H](C)C(=O)N[C@H](C)C(=O)N(C)[C@@H](CC(C)C)C(=O)N(C)[C@@H](CC(C)C)C(=O)N(C)[C@@H](C(C)C)C(=O)N1C [SDZ NIM811],"apoptosis (TUNEL, DNA laddering)",H9c2 myoblasts [7],dose dependent
same,morphological changes during muscle differentiation,[8],blocks the myoblast differentiation
same,myogenin and MRF4 protein expression,"myogenin and MRF4; 1 μM, DM",partial suppression
same,myogenin and MRF4 protein expression,"myogenin and MRF4; concentrations higher than 1 μM, DM",complete suppression
same,ROS level (mean±standard deviation),ROS [10],634±20
B1,effect on muscle differentiation,H9c2 myoblasts [1],blocking activity
